# Measured values as given in PubChem BioAssay AID330 (DTP/NCI, 2004).
# “And” between values parts separate entries of the source, which are not always exact repeats. Equal entries are not always repeated. Inconclusive results and toxic doses are left out.
# Test system: P388 leukemia ip, CD2F1 mice, survival T/C
# Test: NCI In Vivo Anticancer Drug Screen. Data for tumor model P388 Leukemia (intraperitoneal) in CD2F1 (CDF1) mice
# Details: endpoint: median survival time, higher = longer survival
# Summary of the method: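 Mice carrying the transplanted tumor received test compound or vehicle. Survival was recorded in each group, and the value is the treated-group measurement divided by that of the vehicle-treated control group.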
# [1] = dose: 100.0 mg/kg/injection, schedule: Q01DX009 (ip), vehicle: saline with Tween-80
# [2] = dose: 200.0 mg/kg/injection, schedule: Q01DX009 (ip), vehicle: saline with Tween-80
# [3] = dose: 60.0 mg/kg/injection, schedule: Q01DX005 (ip), vehicle: Klucel (hydroxypropylcellulose) (HPC)
# [4] = dose: 120.0 mg/kg/injection, schedule: Q01DX005 (ip), vehicle: Klucel (hydroxypropylcellulose) (HPC)
# [5] = dose: 60.0 mg/kg/injection, schedule: Q01DX005 (ip), vehicle: saline
# [6] = dose: 120.0 mg/kg/injection, schedule: Q01DX005 (ip), vehicle: saline
# [7] = dose: 240.0 mg/kg/injection, schedule: Q01DX005 (ip), vehicle: saline
# [8] = dose: 50.0 mg/kg/injection, schedule: Q01DX009 (ip), vehicle: saline with Tween-80
# [9] = dose: 100.0 mg/kg/injection, schedule: Q01DX001 (ip), vehicle: saline with Tween-80
# [10] = dose: 100.0 mg/kg/injection, schedule: Q04DX003 (ip), vehicle: saline with Tween-80
# [11] = dose: 200.0 mg/kg/injection, schedule: Q04DX003 (ip), vehicle: saline with Tween-80
smiles,measurement,setting,value
CC(C)c1nc(-c2ccccc2)c(-c2ccccc2)[nH]1,T/C,[1],90 % of control
same,T/C,[2],90 % of control
same,T/C,"dose: 400.0 mg/kg/injection, schedule: Q01DX009 (ip), vehicle: saline with Tween-80",95 % of control
COC(=O)c1nc(N)nc(C(=O)OC)c1C(=O)c1ccccc1,T/C,[3],100 % of control
same,T/C,[4],93 % of control
COc1ccc(OC)c(/C=C2/C(=O)N(c3ccccc3)N=C2C)c1,T/C,[3],107 % of control
same,T/C,[4],105 % of control
same,T/C,"dose: 240.0 mg/kg/injection, schedule: Q01DX005 (ip), vehicle: Klucel (hydroxypropylcellulose) (HPC)",107 % of control
CN1CC(O)C2=CC(=O)C(=O)C=C21 (stereo not drawn),T/C,"dose: 30.0 mg/kg/injection, schedule: Q01DX005 (ip), vehicle: saline",117 % of control
same,T/C,[5],120 % of control
same,T/C,[6],119 % of control
CN(C)C(=S)OCC1OC(OC2(CO)OC(COC(=S)N(C)C)C(O)C2O)C(O)C(O)C1O (stereo not drawn),T/C,[5],100 % of control
same,T/C,[6],103 % of control
same,T/C,[7],103 % of control
ClC1c2ccccc2Cc2cccnc21 (stereo not drawn),T/C,[8],102 % of control
same,T/C,[1],101 % of control
same,T/C,[2],95 % of control
COc1ccc(C2C3C(=O)NC(=O)C2C(=O)NC3=O)cc1OC (stereo not drawn),T/C,[5],101 % of control
same,T/C,[6],108 % of control
same,T/C,[7],90 % of control
C[N+](C)(C)/N=C(\[O-])Nc1ccccc1,T/C,[8],100 % of control
same,T/C,[1],104 % of control
same,T/C,[2],89 % of control
CN(C)Cc1cocc(CN(C)C)c1=O,T/C,"dose: 50.0 mg/kg/injection, schedule: Q01DX009 (ip), vehicle: saline",100 % of control
same,T/C,"dose: 100.0 mg/kg/injection, schedule: Q01DX009 (ip), vehicle: saline",98 % of control
same,T/C,"dose: 200.0 mg/kg/injection, schedule: Q01DX009 (ip), vehicle: saline",103 % of control
CSc1nnc2nc[nH]n12,T/C,[9],102 % of control
same,T/C,"dose: 200.0 mg/kg/injection, schedule: Q01DX001 (ip), vehicle: saline with Tween-80",98 % of control
O=C(c1ccc(Cl)cc1)n1c(Cl)c(/C=N\Nc2ccc([N+](=O)[O-])cc2)c2ccccc21,T/C,[10],94 % of control
same,T/C,[11],97 % of control
same,T/C,"dose: 400.0 mg/kg/injection, schedule: Q04DX003 (ip), vehicle: saline with Tween-80",92 % of control
O=C1Sc2ccccc2Cn2cccc21,T/C,"dose: 60.0 mg/kg/injection, schedule: Q01DX005 (ip), vehicle: saline with Tween-80",108 % of control
same,T/C,"dose: 120.0 mg/kg/injection, schedule: Q01DX005 (ip), vehicle: saline with Tween-80",108 % of control
same,T/C,"dose: 240.0 mg/kg/injection, schedule: Q01DX005 (ip), vehicle: saline with Tween-80",123 % of control
C[C@]12CC[C@H](OC(=O)Cc3ccc(N(CCCl)CCCl)cc3)CC1CC[C@@H]1C2CC[C@]2(C)NC(=O)CCC12 (stereo partly drawn),T/C,"dose: 50.0 mg/kg/injection, schedule: Q01DX001 (ip), vehicle: saline with Tween-80",195 % of control
same,T/C,[9],243 % of control and 294 % of control
N#CSc1ccc2nc(NC(NC=O)C(Cl)(Cl)Cl)sc2c1 (stereo not drawn),T/C,"dose: 6.25 mg/kg/injection, schedule: Q01DX009 (ip), vehicle: Klucel (hydroxypropylcellulose) (HPC)",105 % of control
same,T/C,"dose: 12.5 mg/kg/injection, schedule: Q01DX009 (ip), vehicle: Klucel (hydroxypropylcellulose) (HPC)",110 % of control
same,T/C,"dose: 25.0 mg/kg/injection, schedule: Q01DX009 (ip), vehicle: Klucel (hydroxypropylcellulose) (HPC)",103 % of control
S=P([S][Sn]([S]P(=S)(c1ccccc1)c1ccccc1)([c]1ccccc1)[c]1ccccc1)(c1ccccc1)c1ccccc1,T/C,"dose: 1.56 mg/kg/injection, schedule: Q01DX005 (ip), vehicle: Klucel (hydroxypropylcellulose) (HPC)",108 % of control
same,T/C,"dose: 3.12 mg/kg/injection, schedule: Q01DX005 (ip), vehicle: Klucel (hydroxypropylcellulose) (HPC)",117 % of control
CCOC(=O)CCC(NC(=O)N(CCCl)CCCl)C(=O)OCC (stereo not drawn),T/C,[8],154 % of control
same,T/C,[1],168 % of control
same,T/C,[10],113 % of control
same,T/C,"dose: 132.0 mg/kg/injection, schedule: Q04DX003 (ip), vehicle: saline with Tween-80",168 % of control
same,T/C,[2],181 % of control
same,T/C,[11],150 % of control and 172 % of control
same,T/C,"dose: 300.0 mg/kg/injection, schedule: Q04DX003 (ip), vehicle: saline with Tween-80",195 % of control
